Results: patent publication EP0344564A1, “Utilisation of special amines or hindering nitrosamine production” (Eisenbrand, Gerhard, Prof. Dr., priority 1988, dated 1989)

Experiment: Nitrosamine formation in aqueous amine / sodium nitrite mixture, comparison with THEDA (Beispiel 4)
Format: physicochemical
Conditions: 20 mM Amin, 20 mM Natriumnitrit, 4 Stunden, 37 °C, pH 4

For CC(O)CN(CCN(CC(C)O)CC(C)O)CC(C)O (stereo not shown) [THEDA, N,N,N′,N′-Tetrakis(2-hydroxypropyl)ethylene-diamin], the “% gebildetes Nitrosamin bezogen auf eingesetztes Amin” value was 1,0%.
